Source: patent publication US20210246157A1, “CAMPTOTHECIN DERIVATIVES AND PREPARATION METHODS AND APPLICATIONS THEREOF” (priority 2018, published 2021)
≈ marks a conversion by molar mass, not a printed value. Read-outs that look alike come from different tables or passages of the source.

Tests used:
[1] = test system: PC3; assay: Cytotoxicity test (MTT, 72 h); settings: Homo sapiens, PC-3, 72 h, read-out: 50% Inhibiting Concentration value (IC50)
Protocol: (§1) In order to investigate the antitumor activities of the compounds, a variety of tumor cell lines for test are selected. Cells at logarithmic growth period are inoculated in a 96-well plate overnight, then drugs with a certain gradient concentrations are added, and incubation is carried out in a cell culture chamber (5% CO2, 37° C.) for 72 h.

[2] = test system: HT-29; assay: Cytotoxicity test (MTT, 72 h); settings: Homo sapiens, HT-29, 72 h, read-out: 50% Inhibiting Concentration value (IC50)
Protocol: (§2) Cells at logarithmic growth period are inoculated in a 96-well plate overnight, then drugs with a certain gradient concentrations are added, and incubation is carried out in a cell culture chamber (5% CO2, 37° C.) for 72 h.

[3] = test system: HepG2; assay: Cytotoxicity test (MTT, 72 h); settings: Homo sapiens, HepG2, 72 h, read-out: 50% Inhibiting Concentration value (IC50)
Protocol: as §1

[4] = In vivo antitumor activity study, mouse weight (Example 19); parameters: species or system mice
[5] = test system: BGC-823; assay: Cytotoxicity test (MTT, 72 h); settings: Homo sapiens, BGC-823, 72 h, read-out: 50% Inhibiting Concentration value (IC50)
Protocol: as §1

[6] = test system: 143B; assay: Cytotoxicity test (MTT, 72 h); settings: Homo sapiens, read-out: 50% Inhibiting Concentration value (IC50)
Protocol: as §1

[7] = test system: MDA-MB-231; assay: Cytotoxicity test (MTT, 72 h); settings: Homo sapiens, MDA-MB-231, 72 h, read-out: 50% Inhibiting Concentration value (IC50)
Protocol: as §1

[8] = test system: HCT-116; assay: Cytotoxicity test (MTT, 72 h); settings: Homo sapiens, HCT-116, 72 h, read-out: 50% Inhibiting Concentration value (IC50)
Protocol: as §1

[9] = test system: TPC-1; assay: Cytotoxicity test (MTT, 72 h); settings: Homo sapiens, TPC1, 72 h, read-out: 50% Inhibiting Concentration value (IC50)
Protocol: as §2

[10] = test system: Hela; assay: Cytotoxicity test (MTT, 72 h); settings: Homo sapiens, read-out: 50% Inhibiting Concentration value (IC50)
Protocol: as §1

[11] = test system: SW-480; assay: Cytotoxicity test (MTT, 72 h); settings: Homo sapiens, SW480, 72 h, read-out: 50% Inhibiting Concentration value (IC50)
Protocol: as §2

[12] = test system: K562; assay: Cytotoxicity test (MTT, 72 h); settings: Homo sapiens, K562, 72 h, read-out: 50% Inhibiting Concentration value (IC50)
Protocol: as §1

[13] = Solubility test, equilibrium method, UV-visible spectrophotometry; format: physicochemical; settings: thermodynamic from solid
Summary of the method: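 Equilibrium solubility measured by UV-visible spectrophotometry. Reference solution of known concentration (C0) prepared in methanol; test concentration calculated as Cx=(Ax/A0)C0 from absorbance ratio of test to reference solution.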

[14] = test system: ECA-109; assay: Cytotoxicity test (MTT, 72 h); settings: Homo sapiens, ECa-109, 72 h, read-out: 50% Inhibiting Concentration value (IC50)
Protocol: as §1

[15] = Multi-dose in vivo antitumor activity study, mouse weight (Example 20); parameters: species or system mice; settings: caudal vein once every 2 days
Protocol: The drugs are administered through the caudal veins of mice once every 2 days for a total of 7 times.
At the end of the treatment cycle, the orbital venous blood of the mice is collected for later blood routine test, the mice are killed by cervical dislocation method, and tumors are removed immediately and photographed. From day 0, the mice in each group are weighed every three days, and the weights are recorded. The weight average value of each group is calculated, and mouse weight variation curve is drawn according to statistical data. At the end of the treatment cycle, tumors are removed from anesthetized mice immediately and weighted, and the tumor weight of each group is recorded. The tumor inhibition rate (%) is calculated according to the following formula: […]

[16] = test system: H1975; assay: Cytotoxicity test (MTT, 72 h); settings: Homo sapiens, NCI-H1975, 72 h, read-out: 50% Inhibiting Concentration value (IC50)
Protocol: as §1

## CCc1c2c(nc3ccc(OC(=O)OCCOCCOCCOCc4cn(CCO[C@H]5O[C@@H](CO)[C@H](O)[C@@H](O)[C@@H]5O)nn4)cc13)-c1cc3c(c(=O)n1C2)COC(=O)[C@]3(O)CC [Compound 58]
[1]
  IC50: 2530 nM
[2]
  IC50: 5250 nM
[3]
  IC50: 625 nM
[4]; day 0, 13.73 mg/kg i.v. once every three days
  Mouse Weight: 23.57 g
[4]; day 3, 13.73 mg/kg i.v. once every three days
  Mouse Weight: 23.71 g
[4]; day 6, 13.73 mg/kg i.v. once every three days
  Mouse Weight: 24.00 g
[4]; day 9, 13.73 mg/kg i.v. once every three days
  Mouse Weight: 24.76 g
[4]; day 12, 13.73 mg/kg i.v. once every three days
  Mouse Weight: 24.93 g
[4]; day 15, 13.73 mg/kg i.v. once every three days
  Mouse Weight: 24.34 g
[4]; day 18, 13.73 mg/kg i.v. once every three days
  Mouse Weight: 24.04 g
[4]; day 21, 13.73 mg/kg i.v. once every three days
  Mouse Weight: 24.12 g
[5]
  IC50: 212 nM
[6]
  IC50: 7790 nM
[7]
  IC50: 521 nM
[8]
  IC50: 2000 nM
[9]
  IC50: 11200 nM
[10]
  IC50: 3650 nM
[11]
  IC50: 254 nM
[12]
  IC50: 1660 nM
[13]; aqueous with cosolvent or surfactant or cyclodextrin
  solubility: 5330 µg/mL (≈ 6230 µM)
[13]; pH 7.4, aqueous buffer
  solubility: 1580 µg/mL (≈ 1840 µM)
[13]; saline or isotonic
  solubility: 3590 µg/mL (≈ 4200 µM)
[13]; water
  solubility: 2550 µg/mL (≈ 2980 µM)
[14]
  IC50: 4380 nM
[15]; day 0, high-dose group (H) 13.73 mg/kg
  Mouse Weight: 16.69 g
[15]; day 0, low-dose group (L) 3.433 mg/kg
  Mouse Weight: 17.94 g
[15]; day 0, medium-dose group (M) 6.865 mg/kg
  Mouse Weight: 16.55 g
[15]; day 3, high-dose group (H) 13.73 mg/kg
  Mouse Weight: 17.60 g
[15]; day 3, low-dose group (L) 3.433 mg/kg
  Mouse Weight: 16.34 g
[15]; day 3, medium-dose group (M) 6.865 mg/kg
  Mouse Weight: 16.61 g
[15]; day 6, high-dose group (H) 13.73 mg/kg
  Mouse Weight: 16.26 g
[15]; day 6, low-dose group (L) 3.433 mg/kg
  Mouse Weight: 16.36 g
[15]; day 6, medium-dose group (M) 6.865 mg/kg
  Mouse Weight: 15.81 g
[15]; day 9, high-dose group (H) 13.73 mg/kg
  Mouse Weight: 17.28 g
[15]; day 9, low-dose group (L) 3.433 mg/kg
  Mouse Weight: 17.00 g
[15]; day 9, medium-dose group (M) 6.865 mg/kg
  Mouse Weight: 17.23 g
[15]; day 12, high-dose group (H) 13.73 mg/kg
  Mouse Weight: 16.88 g
[15]; day 12, low-dose group (L) 3.433 mg/kg
  Mouse Weight: 16.96 g
[15]; day 12, medium-dose group (M) 6.865 mg/kg
  Mouse Weight: 16.17 g
[15]; day 15, high-dose group (H) 13.73 mg/kg
  Mouse Weight: 16.61 g
[15]; day 15, low-dose group (L) 3.433 mg/kg
  Mouse Weight: 16.41 g
[15]; day 15, medium-dose group (M) 6.865 mg/kg
  Mouse Weight: 15.46 g
[15]; day 18, high-dose group (H) 13.73 mg/kg
  Mouse Weight: 16.06 g
[15]; day 18, low-dose group (L) 3.433 mg/kg
  Mouse Weight: 17.28 g
[15]; day 18, medium-dose group (M) 6.865 mg/kg
  Mouse Weight: 16.47 g
[15]; day 21, high-dose group (H) 13.73 mg/kg
  Mouse Weight: 16.50 g
[15]; day 21, low-dose group (L) 3.433 mg/kg
  Mouse Weight: 16.97 g
[15]; day 21, medium-dose group (M) 6.865 mg/kg
  Mouse Weight: 16.65 g
[16]
  IC50: 9340 nM

## CCc1c2c(nc3ccc(OC(=O)NCCOCc4cn(CCO[C@H]5O[C@@H](CO)[C@H](O)[C@@H](O)[C@@H]5O)nn4)cc13)-c1cc3c(c(=O)n1C2)COC(=O)[C@]3(O)CC [Compound 67]
[1]
  IC50: 2020 nM
[2]
  IC50: 5190 nM
[3]
  IC50: 1050 nM
[4]; day 0, 12.30 mg/kg i.v. once every three days
  Mouse Weight: 23.97 g
[4]; day 3, 12.30 mg/kg i.v. once every three days
  Mouse Weight: 23.97 g
[4]; day 6, 12.30 mg/kg i.v. once every three days
  Mouse Weight: 23.57 g
[4]; day 9, 12.30 mg/kg i.v. once every three days
  Mouse Weight: 23.94 g
[4]; day 12, 12.30 mg/kg i.v. once every three days
  Mouse Weight: 23.58 g
[4]; day 15, 12.30 mg/kg i.v. once every three days
  Mouse Weight: 24.45 g
[4]; day 18, 12.30 mg/kg i.v. once every three days
  Mouse Weight: 24.86 g
[4]; day 21, 12.30 mg/kg i.v. once every three days
  Mouse Weight: 25.33 g
[5]
  IC50: 209 nM
[6]
  IC50: 5610 nM
[7]
  IC50: 876 nM
[8]
  IC50: 235 nM
[9]
  IC50: 8080 nM
[10]
  IC50: 2910 nM
[11]
  IC50: 251 nM
[12]
  IC50: 196 nM
[13]; aqueous buffer, PBS pH 7.4, read-out: Solubility in PBS (pH = 7.4)
  solubility: 2110 µg/mL (≈ 2750 µM)
[13]; aqueous with cosolvent or surfactant or cyclodextrin, 0.1% aqueous solution of Tween-80, read-out: Solubility in 0.1% Tween-80
  solubility: 1480 µg/mL (≈ 1930 µM)
[13]; saline or isotonic, normal saline, read-out: Solubility in Normal Saline (NS)
  solubility: 3350 µg/mL (≈ 4370 µM)
[13]; water, read-out: Solubility in Water
  solubility: 1260 µg/mL (≈ 1650 µM)
[14]
  IC50: 4320 nM
[15]; day 0, high-dose group (H) 12.30 mg/kg
  Mouse Weight: 17.04 g
[15]; day 0, low-dose group (L) 3.075 mg/kg
  Mouse Weight: 16.18 g
[15]; day 0, medium-dose group (M) 6.15 mg/kg
  Mouse Weight: 18.28 g
[15]; day 3, high-dose group (H) 12.30 mg/kg
  Mouse Weight: 16.15 g
[15]; day 3, low-dose group (L) 3.075 mg/kg
  Mouse Weight: 16.28 g
[15]; day 3, medium-dose group (M) 6.15 mg/kg
  Mouse Weight: 17.29 g
[15]; day 6, high-dose group (H) 12.30 mg/kg
  Mouse Weight: 16.88 g
[15]; day 6, low-dose group (L) 3.075 mg/kg
  Mouse Weight: 15.76 g
[15]; day 6, medium-dose group (M) 6.15 mg/kg
  Mouse Weight: 16.82 g
[15]; day 9, high-dose group (H) 12.30 mg/kg
  Mouse Weight: 16.57 g
[15]; day 9, low-dose group (L) 3.075 mg/kg
  Mouse Weight: 16.28 g
[15]; day 9, medium-dose group (M) 6.15 mg/kg
  Mouse Weight: 17.18 g
[15]; day 12, high-dose group (H) 12.30 mg/kg
  Mouse Weight: 16.06 g
[15]; day 12, low-dose group (L) 3.075 mg/kg
  Mouse Weight: 16.03 g
[15]; day 12, medium-dose group (M) 6.15 mg/kg
  Mouse Weight: 16.74 g
[15]; day 15, high-dose group (H) 12.30 mg/kg
  Mouse Weight: 16.32 g
[15]; day 15, low-dose group (L) 3.075 mg/kg
  Mouse Weight: 16.04 g
[15]; day 15, medium-dose group (M) 6.15 mg/kg
  Mouse Weight: 15.82 g
[15]; day 18, high-dose group (H) 12.30 mg/kg
  Mouse Weight: 17.36 g
[15]; day 18, low-dose group (L) 3.075 mg/kg
  Mouse Weight: 16.17 g
[15]; day 18, medium-dose group (M) 6.15 mg/kg
  Mouse Weight: 16.27 g
[15]; day 21, high-dose group (H) 12.30 mg/kg
  Mouse Weight: 16.78 g
[15]; day 21, low-dose group (L) 3.075 mg/kg
  Mouse Weight: 16.48 g
[15]; day 21, medium-dose group (M) 6.15 mg/kg
  Mouse Weight: 16.84 g
[16]
  IC50: 6730 nM
